Consider four compounds from US20210212984A1, “FORMULATION FOR PAIN MANAGEMENT” (Zyus Life Sciences Inc., priority 2019, published 2021).

Each structure is given as a SMILES string. “And” between values parts separate entries of the source, which are not always exact repeats. Equal entries are not always repeated. Where two headings read alike, the source gives them in different places.

The target of one assay is CB1 receptors (Homo sapiens, UniProt P21554). Conditions: Shinjyo N 2013; cited from earlier work.
Sequence of CB1 receptors (P21554 whole entry): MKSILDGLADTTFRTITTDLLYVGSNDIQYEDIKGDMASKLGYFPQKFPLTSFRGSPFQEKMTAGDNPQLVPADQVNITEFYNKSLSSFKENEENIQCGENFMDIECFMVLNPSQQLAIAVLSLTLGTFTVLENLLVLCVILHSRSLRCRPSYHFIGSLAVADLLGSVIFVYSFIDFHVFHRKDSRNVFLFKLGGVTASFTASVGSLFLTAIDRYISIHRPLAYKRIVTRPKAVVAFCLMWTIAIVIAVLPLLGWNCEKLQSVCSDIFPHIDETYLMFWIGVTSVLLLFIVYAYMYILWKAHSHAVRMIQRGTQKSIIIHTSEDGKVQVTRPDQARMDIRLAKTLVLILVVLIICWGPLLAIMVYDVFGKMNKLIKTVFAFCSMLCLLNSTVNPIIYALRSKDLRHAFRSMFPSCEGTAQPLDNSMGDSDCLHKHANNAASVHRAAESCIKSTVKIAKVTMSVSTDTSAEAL
A further assay has as its target CB2 receptors (Homo sapiens, UniProt P34972). The settings on record: Shinjyo N 2013; cited from earlier work.
In the next assay the target is T1, human TRPA1 channel (Homo sapiens, UniProt O75762).
T1 construct: expressed in transfected cells; host or cells: CHO cells
T1 sequence (O75762 whole entry): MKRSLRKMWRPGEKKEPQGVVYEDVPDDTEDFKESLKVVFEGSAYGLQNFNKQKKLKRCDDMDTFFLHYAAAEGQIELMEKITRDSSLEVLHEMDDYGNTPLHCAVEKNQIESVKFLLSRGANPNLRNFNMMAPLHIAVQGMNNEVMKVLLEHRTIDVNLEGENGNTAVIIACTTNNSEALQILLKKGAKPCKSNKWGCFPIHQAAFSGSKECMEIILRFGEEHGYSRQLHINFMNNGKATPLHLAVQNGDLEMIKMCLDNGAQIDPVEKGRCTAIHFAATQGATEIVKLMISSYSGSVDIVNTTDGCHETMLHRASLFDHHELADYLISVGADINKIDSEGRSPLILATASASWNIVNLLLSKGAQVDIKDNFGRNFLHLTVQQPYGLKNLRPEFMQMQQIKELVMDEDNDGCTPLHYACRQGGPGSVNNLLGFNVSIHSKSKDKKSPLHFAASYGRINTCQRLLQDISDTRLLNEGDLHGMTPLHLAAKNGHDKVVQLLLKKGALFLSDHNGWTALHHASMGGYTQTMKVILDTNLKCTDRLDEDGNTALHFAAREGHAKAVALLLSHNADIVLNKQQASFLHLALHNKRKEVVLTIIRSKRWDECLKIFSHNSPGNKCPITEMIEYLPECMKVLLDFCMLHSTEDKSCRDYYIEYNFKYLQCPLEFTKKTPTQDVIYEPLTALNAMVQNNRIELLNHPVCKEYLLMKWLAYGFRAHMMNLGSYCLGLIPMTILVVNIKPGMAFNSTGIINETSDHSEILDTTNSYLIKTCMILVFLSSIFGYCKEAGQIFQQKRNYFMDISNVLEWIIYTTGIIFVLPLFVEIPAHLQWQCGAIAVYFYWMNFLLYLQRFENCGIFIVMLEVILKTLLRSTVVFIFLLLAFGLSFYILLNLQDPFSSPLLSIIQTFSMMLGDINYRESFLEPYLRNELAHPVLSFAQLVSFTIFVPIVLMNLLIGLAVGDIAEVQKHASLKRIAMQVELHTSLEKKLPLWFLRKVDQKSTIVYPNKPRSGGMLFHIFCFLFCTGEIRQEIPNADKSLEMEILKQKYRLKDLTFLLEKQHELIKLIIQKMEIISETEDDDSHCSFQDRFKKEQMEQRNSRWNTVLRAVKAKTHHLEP
In words: ScreenPatch assay (IonWorks Barracuda), agonist mode, TRPA1 expressed in CHO cells. The format is cell-based. The settings on record: for EC50: read-out: EC50, CBC CRC. How it is done:
Formulations for pain management were tested for effects on the human TRPA1 channel, expressed in mammalian cells using the ScreenPatch® assay (IonWorks™ Barracuda Based Assay): agonist mode. The data presented confirming a synergistic effect of cannabinoids (CBD:THC:CBC) at the ion channel level.
Test Articles. The test articles, also referenced herein as test formulations, were evaluated in an 8-point concentration-response format (4 replicate wells/concentration, Table 4A & Table 4B). The test articles were dissolved and initially serially diluted in dimethyl sulfoxide (DMSO). The final dilution was made in extracellular solution. The final DMSO concentration was 0.6% (v/v).
Positive Control Treatment Groups. Stock solutions of positive control articles were prepared in batches, aliquoted for individual use. The positive control test solutions were prepared fresh on the day of experiment. The final DMSO concentration was 0.6% (v/v). […] Reference antagonist, ruthenium red (0-10 μM), was used for both TRPA1.
Test System: TRPA1 ionotropic receptors expressed in CHO cells.
Test Platform: Ionworks Barracuda™
Electrophysiological Procedures. Intracellular solution (mM): 50 mM CsCl, 90 mM CsF, 2 mM MgCl2, 5 mM EGTA, 10 mM HEPES. Adjusted to pH 7.2 with CsOH. This solution was prepared in batches and stored at room temperature. In preparation for a recording session, the intracellular solution was loaded into the intracellular compartment of the PPC planar electrode.
Extracellular solution, HB-PS (composition in mM): NaCl, 137; KCl, 1.0; MgCl2, 2; CaCl2, 2; HEPES, 10; Glucose, 10; pH adjusted to 7.4 with NaOH (refrigerated until use). Holding potential: −70 mV, potential during agonist/antagonist application: −70 mV.
Recording procedure. Extracellular buffer was loaded into the PPC plate wells (11 μL per well). Cell suspension was pipetted into the wells (9 μL per well) of the PPC planar electrode.
Whole-cell recording configuration was established via patch perforation with membrane currents recorded by on-board patch clamp amplifiers.
Single application (scan) protocol was used.
Test Article Administration. The application consisted of the addition of 20 μL of 2× concentrated test article solution at 10 μL/s (2 second total application time).
TRPA1 Positive Control—Agonist.
Positive Control—Antagonist. 0-10 μM Ruthenium Red (8 concentrations, 4 replicates, half log scale).
(The patch-clamp technique gives a direct electrical read-out from membranes.)

Setting [1] is: CHO, CRC of the article alone, % of 3000 μM Mustard Oil, read-out: EMAX.
Setting [2] is: CRC of the article alone, % of 3000 μM Mustard Oil.
[3] abbreviates: in presence of 0.1 μM CBD + THC.
[4] abbreviates: in presence of 0.3 μM CBD + THC.

Sequence of CB2 receptors (P34972 whole entry): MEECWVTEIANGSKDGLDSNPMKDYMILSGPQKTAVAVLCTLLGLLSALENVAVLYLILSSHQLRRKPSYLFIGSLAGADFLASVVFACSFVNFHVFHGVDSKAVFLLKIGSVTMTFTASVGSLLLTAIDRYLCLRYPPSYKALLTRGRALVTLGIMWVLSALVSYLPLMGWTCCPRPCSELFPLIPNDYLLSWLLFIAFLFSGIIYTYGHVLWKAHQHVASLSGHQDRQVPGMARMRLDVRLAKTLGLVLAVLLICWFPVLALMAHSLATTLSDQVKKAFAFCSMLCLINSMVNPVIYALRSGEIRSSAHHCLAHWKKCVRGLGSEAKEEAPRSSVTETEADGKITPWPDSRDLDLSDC

In general, Ki refers to a measure of affinity in units of concentration, obtained from inhibition or displacement. A word on the Emax: it is the size of the effect at its maximum, as opposed to the concentration needed. Usually EC50 stands for the concentration giving half of the maximal effect. With `CCCCCc1cc(O)c2c(c1)OC(C)(CCC=C(C)C)C=C2` (stereo not shown) [CBC, cannabichromene], at CB1 receptors, the “concentrations at which it binds to CB1 receptors” value is reported as “higher than 1 micromolar”. At CB2 receptors, the Ki is around 0.1 µM. On human TRPA1 channel, the “Agonist activity at TRPA1 receptors (in words)” value is “weak partial agonist activity”. The Emax on human TRPA1 channel (setting [1]) was around 10%; on human TRPA1 channel (CHO, at near threshold activation by CBD+THC mixture (1 μM each), n=4, read-out: Efficacy (EMAX) of CBC) it was 16.2 ± 1.3%; on human TRPA1 channel (CHO, in presence of 0.1 μM CBD + THC, % of 3000 μM Mustard Oil, read-out: EMAX, CBC CRC), 10.1%; at human TRPA1 channel (CHO, in presence of 0.3 μM CBD + THC, % of 3000 μM Mustard Oil, read-out: EMAX, CBC CRC), 13.1%; on human TRPA1 channel (CHO, in presence of 1 μM CBD + THC, % of 3000 μM Mustard Oil, read-out: EMAX, CBC CRC), 17.1%; at human TRPA1 channel (CHO, in presence of 3 μM CBD + THC, % of 3000 μM Mustard Oil, read-out: EMAX, CBC CRC), 30.7%. For the same compound, the Emax on human TRPA1 channel (CHO, in presence of 10 μM CBD + THC, % of 3000 μM Mustard Oil, read-out: EMAX, CBC CRC) is 53.2%; on human TRPA1 channel (CHO, in presence of 30 μM CBD + THC, % of 3000 μM Mustard Oil, read-out: EMAX, CBC CRC) it was 60.8%; at human TRPA1 channel (CHO, in presence of 100 μM CBD + THC, % of 3000 μM Mustard Oil, read-out: EMAX, CBC CRC), 58.5%; on human TRPA1 channel (CHO, in presence of 300 μM CBD + THC, % of 3000 μM Mustard Oil, read-out: EMAX, CBC CRC), 37.2%; at human TRPA1 channel (setting [2]), 10.3±1.9% and 10.31%. Also, the “Hill Slope” value on human TRPA1 channel (CRC of the article alone) is listed as −0.96. For the same compound, the EMIN on human TRPA1 channel (setting [2]) is recorded as 0.86%. Besides, the “Efficacy (EMAX) of CBC” value on human TRPA1 channel (at near threshold activation by CBD+THC mixture (1 μM each), n=4) is given as 16±1%. In addition, the “Hill Slope, CBC CRC” value at human TRPA1 channel (setting [3]) is −3.56; at human TRPA1 channel (setting [4]) it was −1.00; at human TRPA1 channel (in presence of 1 μM CBD + THC), −1.00. Moreover, the “EMIN, CBC CRC” value on human TRPA1 channel (in presence of 0.1 μM CBD + THC, % of 3000 μM Mustard Oil) came out at 0.92%; on human TRPA1 channel (in presence of 0.3 μM CBD + THC, % of 3000 μM Mustard Oil) it was 1.42%; at human TRPA1 channel (in presence of 1 μM CBD + THC, % of 3000 μM Mustard Oil), 2.40%; on human TRPA1 channel (in presence of 3 μM CBD + THC, % of 3000 μM Mustard Oil) it was 15.03%; at human TRPA1 channel (in presence of 10 μM CBD + THC, % of 3000 μM Mustard Oil), 42.93%; at human TRPA1 channel (in presence of 30 μM CBD + THC, % of 3000 μM Mustard Oil), 47.70%. Further, the “EMIN, CBC CRC” value at human TRPA1 channel (in presence of 100 μM CBD + THC, % of 3000 μM Mustard Oil) is on record as 37.89%; at human TRPA1 channel (in presence of 300 μM CBD + THC, % of 3000 μM Mustard Oil), 29.27%. The figures for the EC50 on human TRPA1 channel (setting [3]), on human TRPA1 channel (setting [4]) and on human TRPA1 channel (in presence of 1 μM CBD + THC) were 54.5 µM, 64.1 µM and 26 µM, respectively.

In the case of `CO` [Methanol], the Emax on human TRPA1 channel (setting [1]) stood at 3.97%. In addition, on human TRPA1 channel (setting [2]), the EMIN is reported as 0.95%.

On to `C=CCN=C=S` [Mustard Oil, Allyl isothiocyanate, reference compound], for which the Emax at 3000 µM on human TRPA1 channel (CHO, CRC of the article alone, % of 3000 μM Mustard Oil) was 100%. The “Hill Slope” value at human TRPA1 channel (CRC of the article alone) is given as −1.91. Further, the EMIN at human TRPA1 channel (setting [2]) is 1.01%.

By IC50 is commonly meant the midpoint of a concentration-inhibition curve. As for `N.N.N.N.N.N.N.N.N.N.N.N.N.N.[Cl-].[Cl-].[Cl-].[Cl-].[Cl-].[Cl-].[O-2].[O-2].[Ru+3].[Ru+3].[Ru+4]` [Ruthenium Red, reference compound], on human TRPA1 channel (CRC of the article alone), the “Hill Slope” value is recorded as 0.85. In addition, on human TRPA1 channel (setting [2]), the EMIN stood at 0.00% and the Emax was determined as 47.50%. Besides, at human TRPA1 channel (inhibition of TRPA1 receptors, CRC 0-10 μM (footnote: IC50 is shown)), the IC50 was 1.79 µM.
